Laboratory results taken from PMC12037410, “Pharmacological targeting of BMAL1 modulates circadian and immune pathways” (Nature Chemical Biology, 2025).

Target: BMAL1 (Homo sapiens, UniProt O00327)
Set-up: PASB domain (residues 338–449); Protein thermal shift (PTS) fragment screen on recombinant human BMAL1(PASB), shift of melting temperature
Settings: dTmB; binder

Sequence of BMAL1 (O00327 338-449): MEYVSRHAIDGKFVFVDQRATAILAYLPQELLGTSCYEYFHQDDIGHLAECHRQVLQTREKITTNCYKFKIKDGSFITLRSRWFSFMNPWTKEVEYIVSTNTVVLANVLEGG

Row | Compound | Bmal1(PASB) dTmB [°C]
1 | O=C(O)CCc1ncc(-c2ccccc2)o1 [Prestw-Frag-2693, Compound 126] | 0.10
2 | Cc1nc(-c2ccccc2)c(-c2ccccc2)o1 [Prestw-Frag-2695, Compound 471] | -2.25
3 | COc1ccc(C(C)=O)c(O)c1 [Prestw-Frag-2701, Compound 250] | 0.06
4 | Oc1ccccc1C1CCCC1 [Prestw-Frag-2706, Compound 472] | -2.14
5 | CN1C(=O)CCC1=O [Prestw-Frag-2713, Compound 293] | 0.17
6 | NC(N)=NC(N)=Nc1ccc(Cl)cc1 [Prestw-Frag-2722, Compound 143] | -0.89
7 | CCCOc1ccc(C(=O)OCC)cc1N [Prestw-Frag-2724, Compound 416] | -1.52
8 | CS(=O)(=O)Nc1ccccc1 [Prestw-Frag-2755, Compound 281] | -0.10
9 | O=c1ccn([C@H]2C[C@H](O)[C@@H](CO)O2)c(=O)[nH]1 [Prestw-Frag-2769, Compound 275] | 0.09
10 | CCN(CC)CCOC(=O)C1(c2ccccc2)CCCC1 [Prestw-Frag-2774, Compound 413] | -1.85
11 | c1ccc2c3c([nH]c2c1)CCCC3 [Prestw-Frag-2780, Compound 46] | -0.19
12 | CCNC(=O)c1cccnc1 [Prestw-Frag-2794, Compound 205] | 0.17
13 | COC(=O)c1c[nH]c2ccccc12 [Prestw-Frag-2799, Compound 456] | -0.14
14 | OC1CCN(c2ccccc2F)CC1 [Prestw-Frag-2803, Compound 151] | -0.09
15 | Cc1ccccc1Nc1ncccc1C(=O)O [Prestw-Frag-2806, Compound 441] | 0.29
16 | O=C(O)c1cccnc1Nc1cccc(Cl)c1 [Prestw-Frag-2807, Compound 229] | -0.34
17 | NCCCOc1cccc(CN2CCCCC2)c1 [Prestw-Frag-2808, Compound 156] | -1.04
18 | Oc1cccc(CN2CCCCC2)c1 [Prestw-Frag-2809, Compound 115] | -0.43
19 | CCNC(=O)c1ccc(Cl)cc1 [Prestw-Frag-2818, Compound 347] | -0.36
20 | Nc1cccc(O)c1 [Prestw-Frag-2826, Compound 83] | -0.56
21 | C[C@@H](O)c1cc(C(F)(F)F)cc(C(F)(F)F)c1 [Prestw-Frag-2849, Compound 236] | -0.34
22 | Clc1cccc(N2CCNCC2)c1Cl [Prestw-Frag-2853, Compound 42] | -1.63

Row | Compound | Bmal1(PASB) dTmB [°C]
23 | O=C1CCc2ccc(O)cc2N1 [Prestw-Frag-2854, Compound 80] | -0.98
24 | c1ccc(C(c2ccccc2)n2ccnc2)cc1 [Prestw-Frag-2868, Compound 465] | -6.29
25 | c1ccc(-c2nn[nH]n2)cc1 [Prestw-Frag-2887, Compound 426] | 0.51
26 | Oc1cc(Cl)c(Cl)cc1Cl [Prestw-Frag-2898, Compound 59] | -0.02
27 | O=C(c1ccccc1)c1ccc(Br)cc1 [Prestw-Frag-2912, Compound 22] | -1.94
28 | CC(C)(C)OC(=O)/C=C/c1ccccc1 [Prestw-Frag-2947, Compound 382] | -0.17
29 | c1ccc(C2CNCCO2)cc1 (stereo not shown) [Prestw-Frag-2958, Compound 322] | -0.55
30 | COc1ccc(CC(=O)O)cc1 [Prestw-Frag-2960, Compound 158] | 0.16
31 | Nc1nc2c(s1)CCCC2 [Prestw-Frag-2972, Compound 480] | -5.59
32 | CCOc1ccccc1OCC1CNCCO1 (stereo not shown) [Prestw-Frag-2992, Compound 332] | -0.48
33 | CCOc1ccccc1O [Prestw-Frag-2995, Compound 314] | -0.47
34 | c1ccc(-n2ccc3ccccc32)cc1 [Prestw-Frag-3011, Compound 447] | -0.07
35 | CNS(=O)(=O)Cc1ccc2[nH]cc(CCN)c2c1 [Prestw-Frag-3017, Compound 50] | 0.72
36 | c1ccc2nccnc2c1 [Prestw-Frag-3033, Compound 315] | 0.23
37 | O=C1c2nccnc2C(O)N1c1ccc(Cl)cn1 (stereo not shown) [Prestw-Frag-3046, Compound 93] | -0.98
38 | Cc1ccc(N)c(C#N)c1 [Prestw-Frag-3060, Compound 394] | -0.18
39 | OCCc1ccc(Cl)cc1 [Prestw-Frag-3062, Compound 418] | 0.02
40 | O=C1c2ccc(Cl)cc2CCc2cccnc21 [Prestw-Frag-3073, Compound 431] | -4.79
41 | CCN(CC)C(=O)/C=C/c1ccccc1 [Prestw-Frag-3088, Compound 429] | -1.63
42 | O=C(O)/C=C/c1cnc[nH]1 [Prestw-Frag-3090, Compound 19] | -1.08
43 | OCc1ccc(F)cc1F [Prestw-Frag-3100, Compound 349] | 0.05
44 | OCCn1cncn1 [Prestw-Frag-3101, Compound 350] | 0.19

Row | Compound | Bmal1(PASB) dTmB [°C]
45 | CCCCc1nc(Cl)c(CO)[nH]1 [Prestw-Frag-3114, Compound 336] | 0.07
46 | CCN(CC)CCNC(=O)c1ccc(N)c(Cl)c1 [Prestw-Frag-3120, Compound 278] | -0.15
47 | c1ccc2c(c1)CCCN2 [Prestw-Frag-3137, Compound 43] | 0.06
48 | Fc1cccnc1N1CCCC1 [Prestw-Frag-3150, Compound 24] | -0.14
49 | COc1ccc2c(c1)CCCC2 [Prestw-Frag-3188, Compound 32] | -0.52
50 | Nc1nc(N)nc(-c2ccccc2)n1 [Prestw-Frag-3190, Compound 387] | -0.27
51 | O=C(Cc1ccccc1F)C1CC1 [Prestw-Frag-3198, Compound 60] | -1.49
52 | Cc1ccccc1C(=O)Nc1ccccc1 [Prestw-Frag-3202, Compound 39] | -1.32
53 | Cc1cc(=O)n(-c2ccc(C)c(C)c2)[nH]1 [Prestw-Frag-3221, Compound 342] | 1.18
54 | Oc1ccccc1OCC(F)(F)F [Prestw-Frag-3225, Compound 113] | -0.44
55 | Cc1cn(-c2cc(N)cc(C(F)(F)F)c2)cn1 [Prestw-Frag-3241, Compound 458] | -2.09
56 | Cc1cc(C)[nH]c(=O)n1 [Prestw-Frag-3247, Compound 190] | 0.01
57 | O=C(O)CC(c1ccccc1)c1ccccc1 [Prestw-Frag-3250, Compound 130] | -0.49
58 | FC(F)(F)c1nnc2n1CCNC2 [Prestw-Frag-3253, Compound 136] | 0.11
59 | CN1CCN(c2cc(N)ncn2)CC1 [Prestw-Frag-3262, Compound 191] | -0.17
60 | Nc1ccn([C@H]2C[C@H](O)[C@@H](CO)O2)c(=O)n1 [Prestw-Frag-3264, Compound 107] | -0.01
61 | Nc1ncn([C@@H]2O[C@H](CO)[C@@H](O)[C@H]2O)c(=O)n1 [Prestw-Frag-3302, Compound 121] | -0.02
62 | COc1ccc(S(=O)(=O)N2CCNCC2)cc1 [Prestw-Frag-3313, Compound 215] | -0.02
63 | CCOc1ccccc1C(=N)N [Prestw-Frag-3314, Compound 150] | -0.32
64 | Nc1ncc([N+](=O)[O-])s1 [Prestw-Frag-3324, Compound 478] | -7.14
65 | Nc1ncnc2c1ncn2CCO [Prestw-Frag-3329, Compound 91] | -0.48
66 | O=C(c1ccc(C(F)(F)F)cc1)C1CCCCC1 [Prestw-Frag-3334, Compound 225] | -0.21

Row | Compound | Bmal1(PASB) dTmB [°C]
67 | NC(=O)c1ccc2[nH]ccc2c1 [Prestw-Frag-3336, Compound 449] | -0.81
68 | Nc1ccc(CS(=O)(=O)N2CCCC2)cc1 [Prestw-Frag-3341, Compound 142] | -0.24
69 | COc1ccc(CC(C)N)cc1 (stereo not shown) [Prestw-Frag-3342, Compound 241] | -0.24
70 | CS(=O)(=O)NC(Cc1ccccc1)C(=O)O (stereo not shown) [Prestw-Frag-3362, Compound 137] | 0.29
71 | CNS(=O)(=O)CCc1ccccc1 [Prestw-Frag-3368, Compound 97] | -0.29
72 | CCOC(=O)c1cccnc1 [Prestw-Frag-3382, Compound 96] | -0.50
73 | O=C(CCCN1CCNCC1)c1ccc(F)cc1 [Prestw-Frag-3426, Compound 470] | -0.60
74 | COc1ccc(CCN)cc1OC [Prestw-Frag-3454, Compound 202] | -0.13
75 | Oc1ccc(Cc2ccccc2)cc1 [Prestw-Frag-3455, Compound 469] | -2.61
76 | O=C1CNCCN1 [Prestw-Frag-3458, Compound 117] | -0.43
77 | O=C1CN(Cc2ccccc2)CCN1 [Prestw-Frag-3459, Compound 48] | -0.65
78 | CN1CCNCC1=O [Prestw-Frag-3460, Compound 125] | 0.00
79 | Cn1cc(CC(=O)O)c2ccccc21 [Prestw-Frag-3461, Compound 75] | -0.44
80 | NC1CCc2ccccc21 (stereo not shown) [Prestw-Frag-3462, Compound 90] | -0.81
81 | O=C1COCCN1 [Prestw-Frag-3463, Compound 118] | -0.27
82 | Cn1ccc(=O)[nH]1 [Prestw-Frag-3664, Compound 92] | 0.17
83 | O=C1Cc2cc(F)ccc2N1 [Prestw-Frag-3667, Compound 261] | -0.23
84 | O=C(O)CC1CCCCC1 [Prestw-Frag-3668, Compound 169] | 0.13
85 | C#Cc1cccc(N)c1 [Prestw-Frag-3669, Compound 7] | -3.75
